# According to patent US9913921B2, “Pretargeting kit for imaging or therapy comprising a trans-cyclooctene dienophile and a diene” (TAGWORKS PHARMACEUTICALS B.V., priority 2011, dated 2018):
# What was measured:
# [1] = Hydrolytic stability tests of tetrazines; type: physicochemical; settings: PBS buffer, 20° C.
# [2] = Reactivity of tetrazines towards trans-cyclooct-4-ene-1-ol (minor isomer), competition experiment; settings: reference 3-(5-acetamido-2-pyridyl)-6-(2-pyridyl)-1,2,4,5-tetrazine
# Procedure: A competition experiment was performed to determine the reactivity ratio of a specific tetrazine and 3-(5-acetamido-2-pyridyl)-6-(2-pyridyl)-1,2,4,5-tetrazine (that was chosen as the reference tetrazine), in the inverse-electron demand Diels-Alder reaction with trans-cyclooct-4-ene-1-ol (minor isomer).
# To acetonitrile (0.100 mL) was added 5 μL of a solution of the specific tetrazine in DMSO (25 mM) and 5 μL, of a solution of the reference tetrazine in DMSO (25 mM). This mixture was diluted with water (0.9 mL), and the absolute amounts of both tetrazines was determined by HPLC-MS/PDA analysis. Subsequently, a solution of trans-cyclooct-4-ene-1-ol (minor isomer) in DMSO (25 μL, 2.5 mM) was slowly added, and the mixture was stirred for 5 min. Again, the absolute amounts of both tetrazines was determined by HPLC-MS/PDA analysis, and conversions for both tetrazines was calculated. From these conversions, the reactivity ratio (R=k2,TCO/k2,Ref) of both tetrazines was calculated using the mathematical procedure from Ingold and Shaw (J. Chem. Soc., 1927, 2918-2926).
# [3] = Stability of trans-cyclooctene derivatives; type: physicochemical; settings: PBS buffer, 20° C., in the dark, estimation
# Procedure: 10 μL of a solution of the specific trans-cyclooctene derivative in dioxane (25 mM) was diluted with PBS buffer (3 mL), and this solution was stored at 20° C. in the dark. The faith of the TCO compound was monitored by HPLC-MS analysis, and an estimation of the half-life time was made.
# [4] = Reactivity of trans-cyclooctene derivatives towards bis(2-pyridyl)-1,2,4,5-tetrazine, competition experiment; settings: for reactivity towards tetrazines compared to minor isomer of trans-cyclooct-4-ene-1-ol: in words; for Reactivity ratio (R = k2,TCO/k2,Ref): reference trans-cyclooct-4-ene-1-ol (minor isomer)
# Procedure: A competition experiment was performed to determine the reactivity ratio of a specific trans-cyclooctene derivative and trans-cyclooct-4-ene-1-ol (minor isomer) (that was chosen as the reference trans-cyclooctene), in the inverse-electron demand Diels-Alder reaction with bis(2-pyridyl)-1,2,4,5-tetrazine.
# This mixture was diluted with water (0.45 mL). Subsequently, a solution of bis(2-pyridyl)-1,2,4,5-tetrazine (6.25*10^−8 mol) in a mixture of acetonitrile (0.05 mL) and water (0.45 mL) was slowly added while stirring vigorously. After addition, the mixture was stirred for an additional 5 min. The conversion of both trans-cyclooctene derivatives was determined by HPLC-MS/PDA analysis, and from these conversions, the reactivity ratio (R=k2,TCO/k2,Ref) of the specific trans-cyclooctene derivative was calculated using the mathematical procedure from Ingold and Shaw (J. Chem. Soc., 1927, 2918-2926).
# [5] = Reaction of trans-cyclooctene β-lactam derivative with tetrazine; settings: equimolar (6.25*10^−8 mol) in water, immediate discoloration, HPLC-MS
# Procedure: (§1) To a solution of 3-(5-acetamido-2-pyridyl)-6-(2-pyridyl)-1,2,4,5-tetrazine (6.25*10^−8 mol) in water (1 mL) was added the trans-cyclooctene β-lactam derivative 25 (6.25*10^−8 mol). […] This was confirmed by HPLC-MS analysis: complete disappearance of the tetrazine signal and formation of the rDA adduct with m/z=475.33 (M+H^+).
# [6] = as above; settings: equimolar (6.25*10^−8 mol) in water, immediate discoloration, HPLC-MS; remark: listed apart in the source
# Procedure: as §1, with “3-(5-butyramido-2-pyridyl)-6-(2-pyrimidyl)-1,2,4,5-tetrazine” for “3-(5-acetamido-2-pyridyl)-6-(2-pyridyl)-1,2,4,5-tetrazine”, “m/z=504.42” for “m/z=475.33”
# [7] = as above; settings: equimolar (6.25*10^−8 mol) in water, immediate discoloration, HPLC-MS; remark: listed apart in the source
# Procedure: as §1, with “(4-(1,2,4,5-tetrazin-3-yl)phenyl)methanamine” for “3-(5-acetamido-2-pyridyl)-6-(2-pyridyl)-1,2,4,5-tetrazine”, “m/z=369.17” for “m/z=475.33”
# [8] = as above; settings: equimolar (6.25*10^−8 mol) in water, immediate discoloration, HPLC-MS; remark: listed apart in the source
# [9] = as above; settings: tetrazine suspension in water
# Procedure: as §1, with “suspension” for “solution”, “3,6-diphenyl-1,2,4,5-tetrazine” for “3-(5-acetamido-2-pyridyl)-6-(2-pyridyl)-1,2,4,5-tetrazine”, “m/z=416.42” for “m/z=475.33”
smiles,measurement,setting,value
c1cnc(-c2nnc(-c3ncccn3)nn2)nc1,half-life at 83 µM,[1],4.5 h
same,"Reactivity ratio (R = k2,TZ/k2,Ref)",[2],0.12
"O=C(O)C1C2CC/C=C/CCC21 (stereo not drawn) [compound 4, (E-endo)-Bicyclo[6.1.0]non-4-ene-9-carboxylic acid]",half-life at 83 µM,[3],> 72 h
same,reactivity towards tetrazines compared to minor isomer of trans-cyclooct-4-ene-1-ol,[4],markedly increased reactivity
same,"Reactivity ratio (R = k2,TCO/k2,Ref)",[4]; listed as drawing 42,13.1
"O=C(O)C1C2CC/C=C/CCC21 (stereo not drawn) [compound 5, (E-exo)-Bicyclo[6.1.0]non-4-ene-9-carboxylic acid]",reactivity towards tetrazines compared to minor isomer of trans-cyclooct-4-ene-1-ol,[4],markedly increased reactivity
same,"Reactivity ratio (R = k2,TCO/k2,Ref)",[4]; listed as drawing 43,20.0
"O=C(O)CN1C(=O)C2CC/C=C/CCC21 (stereo not shown) [compound 25, (E)-2-(10-oxo-9-azabicyclo[6.2.0]dec-4-en-9-yl)acetic acid]",half-life at 83 µM,[3],~24 h
same,reactivity towards tetrazines compared to minor isomer of trans-cyclooct-4-ene-1-ol,[4],markedly increased reactivity
same,"Reactivity ratio (R = k2,TCO/k2,Ref)",[4],5.4
same,reaction with tetrazine,[5],quantitative reaction
same,reaction with tetrazine,[6],quantitative reaction
same,reaction with tetrazine,[7],quantitative reaction
same,reaction with tetrazine,[8],quantitative reaction
same,reaction with tetrazine,"[9]; equimolar (6.25*10^−8 mol), HPLC-MS",quantitative reaction
same,"time until pink, turbid mixture became clear and colorless",[9],≤ 15 min
"O=C1N[C@H]2CC/C=C/CC[C@H]2N1 [compound 40, Cis (E)-3,3a,4,5,9,9a-hexahydro-1H-cycloocta[d]imidazol-2(8H)-one]",half-life at 83 µM,[3],> 72 h
same,reactivity towards tetrazines compared to minor isomer of trans-cyclooct-4-ene-1-ol,[4],markedly increased reactivity
same,"Reactivity ratio (R = k2,TCO/k2,Ref)",[4],7.3
